Format in all cases: cell-based
Data set [1] deals with human peripheral blood mononuclear cells (PBMC). The data set is described as follows: Cytotoxicity test using human peripheral blood mononuclear cells (PBMC). The following applies: compound 10 μg/mL, LPS, 24 hr, WST-1 or WST-8. How it is done:
Example 56: Cytotoxicity Test Using Human Peripheral Blood Mononuclear Cells (PBMC)
Peripheral blood of a healthy adult was collected in a Venoject II vacuum blood collection tube (Terumo, containing EDTA/2Na), and then diluted two-fold with an equal volume of OTSUKA NORMAL SALINE (Otsuka Pharmaceutical Co., Ltd.). The diluted blood was mixed with Lymphoprep (AXIS-SHIELD) in half the volume of the diluted blood, dispensed into a 15 mL conical tube, and centrifuged at room temperature for 20 min (2,100 rpm). The mononuclear cells accumulated at the interface between Lymphoprep and plasma was transferred to a 50 mL conical tube, diluted with OTSUKA NORMAL SALINE, and the mononuclear cells suspension was centrifuged at room temperature for 10 min (1,150 rpm) and then the supernatant was removed. The mononuclear cells fraction obtained as a precipitate was suspended in an appropriate amount of medium A, and diluted as appropriate with 0.4% trypan blue solution (Sigma-Aldrich Co. LLC.). The number of viable cells was counted with a hemocytometer (ERMA INC.). It was diluted with medium A such that the value obtained was 5×10^5 cells/mL. On the other hand, 37.5 μL of medium A, 2.5 μL of 0.4 mg/mL test compound solution (DMSO solution 10-fold diluted with medium A), and 10 μL of 10 μg/mL lipopolysaccharide (Sigma-Aldrich Co. LLC.) solution (diluted with medium A) were each added in advance to the same well of a Falcon 96-well flat bottom plate (Corning Incorporated), and the above-mentioned cell suspension was dispensed at 50 μL/well (final concentration of test compound 10 μg/mL). 2.5 μL of DMSO diluted 10-fold with medium A was added to the control well instead of the compound solution. After culturing at 37° C. in a 5% CO2 stream for 24 hr, the cell survival rate was measured using WST-1 (DOJINDO LABORATORIES) or WST-8 kit (KISHIDA CHEMICAL Co., Ltd.) and according to each instruction manual attached thereto.
(Tetrazolium dyes change colour on reduction, which living cells bring about.)

For another data set, the system named is Kasumi-7 cells. The data set is described as follows: Human acute lymphoblastic leukemia cell line Kasumi-7 proliferation suppression test. The following applies: 72 h, compound 10 μM, 3 days, WST-8, read-out: cell survival rate (% of control) Kasumi-7. The essentials:
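Cells seeded at 1.3×10^5 cells/mL in RPMI1640 with 20% FCS, cultured overnight at 37°C, 5% CO2, then treated with compound at 10 μM final; DMSO vehicle control. Proliferation read by WST-8 after 3 days' culture.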

The test system of a further data set is Daudi cells. The data set is described as follows: Human Burkitt lymphoma cell line Daudi proliferation suppression test. The following applies: 72 h, compound 10 μM, 3 days, WST-8, read-out: cell survival rate (% of control) Daudi. A digest of the protocol: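 Daudi cells plated at 1.3×10^5 cells/mL and cultured overnight at 37° C., 5% CO2, then given test compound at final 10 μM (DMSO vehicle control). After 3 days' culture, proliferation was read by WST-8.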

For a further data set, the system named is TNF-α production. The data set is described as follows: Human TNF-α production suppression test (LPS-stimulated peripheral blood mononuclear cells, ELISA). As to conditions: PBMC, compound 10 μg/mL, 24 hr, control well = 100, read-out: TNF-α production suppressive rate (%). As for the experimental part:
Example 50: Human TNF-α Production Suppression Test
Peripheral blood of a healthy adult was collected in a vacuum blood collection tube (Terumo, containing EDTA/2Na), and then diluted two-fold with an equal volume of OTSUKA NORMAL SALINE (Otsuka Pharmaceutical Co., Ltd.). The diluted blood was mixed with Lymphoprep (AXIS-SHIELD) in half the volume of the diluted blood, dispensed into a 15 mL conical tube, and centrifuged at room temperature for 20 min (2,100 rpm). The mononuclear cells accumulated at the interface between Lymphoprep and plasma was transferred to a 50 mL conical tube, diluted with OTSUKA NORMAL SALINE, and the mononuclear cells suspension was centrifuged at room temperature for 10 min (1,150 rpm) and then the supernatant was removed. The mononuclear cells fraction obtained as a precipitate was suspended in an appropriate amount of 10% fetal calf serum (Thermo Fisher Scientific)-containing RPMI1640 medium (Thermo Fisher Scientific, hereinafter abbreviated as medium A), and diluted as appropriate with 0.4% trypan blue solution (Sigma-Aldrich Co. LLC.). The number of viable cells was counted with a hemocytometer (ERMA INC.). It was diluted with medium A such that the value obtained was 5×10^5 cells/mL. On the other hand, 75 μL of medium A, 5 μL of 0.4 mg/mL test compound solution (DMSO solution 10-fold diluted with medium A), and 20 μL of 10 μg/mL lipopolysaccharide (Sigma-Aldrich Co. LLC.) solution (diluted with medium A) were each added in advance to the same well of a Falcon 96-well flat bottom plate (Corning Incorporated), and the above-mentioned cell suspension was dispensed at 0.1 mL/well. 5 μL of DMSO diluted 10-fold with medium A was added to the control well instead of the compound solution. After culturing at 37° C. in a 5% CO2 stream for 24 hr, the culture solution was centrifuged at 4° C., 1,000 rpm for 3 min and the supernatant was recovered. The content of TNF-α in the supernatant was measured using an ELISA kit (Peprotech) according to a conventional method. The amount of TNF-α produced in the well containing the test compound was determined with the amount of TNF-α produced in the control well as 100, and the suppression rate was calculated for each test.
Background: In an ELISA, binding on a coated surface is turned into a signal by an enzyme label.

Turning to `CCCCOc1cscc1-c1cn(C2CCC(=O)NC2=O)nn1` (stereo not shown) [compound 25, 3-[4-(4-butoxythiophen-3-yl)-1H-1,2,3-triazol-1-yl]piperidine-2,6-dione], the “cell survival rate (% of control) PBMC” value in data set [1] was 118 % of control. Also, the viability at 10 µM was 73% in the data set on Kasumi-7 cells and 68% in the data set with Daudi cells. The inhibition at 10 µg/mL in the data set with TNF-α production was found to be 49%.

`CC(=O)c1ccc(-c2cn(C3CCC(=O)NC3=O)nn2)s1` (stereo not shown) [compound 8, 3-[4-(5-acetylthiophen-2-yl)-1H-1,2,3-triazol-1-yl]piperidine-2,6-dione]: the “cell survival rate (% of control) PBMC” value in data set [1] is listed as 97 % of control. In addition, the viability at 10 µM was 94% with Kasumi-7 cells and 93% in the data set on Daudi cells. Besides, the inhibition at 10 µg/mL in the data set with TNF-α production amounted to 64%.

As for `O=C1CCC(n2cc(-c3ccc(Br)s3)nn2)C(=O)N1` (stereo not shown) [compound 12, 3-[4-(5-bromothiophen-2-yl)-1H-1,2,3-triazol-1-yl]piperidine-2,6-dione], the “cell survival rate (% of control) PBMC” value in data set [1] is on record as 101 % of control. In addition, the viability at 10 µM turned out to be 89% in the data set with Kasumi-7 cells and 87% with Daudi cells. The inhibition at 10 µg/mL with TNF-α production was determined as 84%.

Regarding `O=C1CCC(n2cc(-c3ccc(Cl)s3)nn2)C(=O)N1` (stereo not shown) [compound 11, 3-[4-(5-chlorothiophen-2-yl)-1H-1,2,3-triazol-1-yl]piperidine-2,6-dione], the “cell survival rate (% of control) PBMC” value in data set [1] is 115 % of control. Besides, the figures for the viability at 10 µM in the data set on Kasumi-7 cells and with Daudi cells were 78% and 94%, respectively. In the data set with TNF-α production, the inhibition at 10 µg/mL was 81%.

`O=C1CCC(n2nnc(-c3ccsc3)c2Cl)C(=O)N1` (stereo not shown) [compound 4, 3-[5-chloro-4-(thiophen-3-yl)-1H-1,2,3-triazol-1-yl]piperidine-2,6-dione]: the “cell survival rate (% of control) PBMC” value in data set [1] is reported as 112 % of control. Besides, the viability at 10 µM in the data set on Kasumi-7 cells came to 91%; with Daudi cells, 82%. Further, in the data set on TNF-α production, the inhibition at 10 µg/mL was found to be 67%.

As for `O=C1CCC(n2cc(-c3cscc3OCc3cccnc3)nn2)C(=O)N1` (stereo not shown) [compound 35, 3-{4-[4-(pyridin-3-ylmethoxy)thiophen-3-yl]-1H-1,2,3-triazol-1-yl}piperidine-2,6-dione], the “cell survival rate (% of control) PBMC” value in data set [1] was 100 % of control. Moreover, the viability at 10 µM with Kasumi-7 cells worked out at 53%; in the data set with Daudi cells, 67%. Besides, the inhibition at 10 µg/mL in the data set with TNF-α production worked out at 70%.

On to `O=C1CCC(n2cc(-c3cscc3OCc3ccncc3)nn2)C(=O)N1` (stereo not shown) [compound 33, 3-{4-[4-(pyridin-4-ylmethoxy)thiophen-3-yl]-1H-1,2,3-triazol-1-yl}piperidine-2,6-dione], for which the “cell survival rate (% of control) PBMC” value in data set [1] is listed as 78 % of control. Moreover, the viability at 10 µM was found to be 38% with Kasumi-7 cells and 27% in the data set on Daudi cells. In the data set with TNF-α production, the inhibition at 10 µg/mL was determined as 100%.

For the compound `O=C1CCC(n2nnc(-c3ccsc3)c2Br)C(=O)N1` (stereo not shown) [compound 48, 3-[5-bromo-4-(thiophen-3-yl)-1H-1,2,3-triazol-1-yl]piperidine-2,6-dione], in data set [1], the “cell survival rate (% of control) PBMC” value is 138 % of control. Further, the values for the viability at 10 µM in the data set on Kasumi-7 cells and in the data set with Daudi cells were 95% and 80%, respectively. Moreover, the inhibition at 10 µg/mL with TNF-α production stood at 51%.

As for `Cl.O=C1CCC(n2cc(-c3cscc3OCc3ccc(CCN4CCOCC4)cc3)nn2)C(=O)N1` (stereo not shown) [compound 45, 3-(4-{4-[4-(2-morpholinoethyl)benzyloxy]thiophen-3-yl}-1H-1,2,3-triazol-1-yl)piperidine-2,6-dione hydrochloride], the “cell survival rate (% of control) PBMC” value in data set [1] is reported as 110 % of control. The viability at 10 µM in the data set on Kasumi-7 cells was determined as 39%; with Daudi cells, 40%. Moreover, in the data set with TNF-α production, the inhibition at 10 µg/mL is 76%.

In the case of `COc1cc(-c2cn(C3CCC(=O)NC3=O)nn2)cs1` (stereo not shown) [compound 20, 3-[4-(5-methoxythiophen-3-yl)-1H-1,2,3-triazol-1-yl]piperidine-2,6-dione], the “cell survival rate (% of control) PBMC” value in data set [1] is reported as 104 % of control. Moreover, the values for the viability at 10 µM in the data set on Kasumi-7 cells and in the data set with Daudi cells were 53% and 55%, respectively. The inhibition at 10 µg/mL in the data set with TNF-α production stood at 87%.

Regarding `O=C1CCC(n2cc(-c3cscc3OCc3ccc(CN4CCOCC4)cc3)nn2)C(=O)N1` (stereo not shown) [compound 36, 3-(4-{4-[4-(morpholinomethyl)benzyloxy]thiophen-3-yl}-1H-1,2,3-triazol-1-yl)piperidine-2,6-dione], the “cell survival rate (% of control) PBMC” value in data set [1] is on record as 59 % of control. Also, the results for the viability at 10 µM in the data set with Kasumi-7 cells and with Daudi cells were 19% and 6%, respectively. In the data set with TNF-α production, the inhibition at 10 µg/mL came out at 98%.

`COC(=O)c1scc(-c2cn(C3CCC(=O)NC3=O)nn2)c1OC` (stereo not shown) [compound 16, methyl 4-[1-(2,6-dioxopiperidin-3-yl)-1H-1,2,3-triazol-4-yl]-3-methoxythiophene-2-carboxylate]: in data set [1], the “cell survival rate (% of control) PBMC” value was 90 % of control. Moreover, the viability at 10 µM came to 90% with Kasumi-7 cells and 83% in the data set with Daudi cells. Also, the inhibition at 10 µg/mL in the data set on TNF-α production turned out to be 100%.

As for `Cl.O=C1CCC(n2cc(-c3cscc3OCc3ccc(CN4CCCC4)cc3)nn2)C(=O)N1` (stereo not shown) [compound 41, 3-(4-{4-[4-(pyrrolidin-1-ylmethyl)benzyloxy]thiophen-3-yl}-1H-1,2,3-triazol-1-yl)piperidine-2,6-dione hydrochloride], the “cell survival rate (% of control) PBMC” value in data set [1] was 110 % of control. The viability at 10 µM in the data set with Kasumi-7 cells turned out to be 26%; in the data set with Daudi cells it was 24%. Also, in the data set on TNF-α production, the inhibition at 10 µg/mL was found to be 93%.

On to `O=C1CCC(n2cc(-c3cc(Br)sc3Br)nn2)C(=O)N1` (stereo not shown) [compound 13, 3-[4-(2,5-dibromothiophen-3-yl)-1H-1,2,3-triazol-1-yl]piperidine-2,6-dione], for which the “cell survival rate (% of control) PBMC” value in data set [1] is 132 % of control. The viability at 10 µM with Kasumi-7 cells came to 93%; in the data set on Daudi cells, 95%. Also, in the data set with TNF-α production, the inhibition at 10 µg/mL stood at 35%.

For the compound `O=C1CCC(n2cc(-c3cccs3)nn2)C(=O)N1` (stereo not shown) [compound 3, 3-[4-(thiophen-2-yl)-1H-1,2,3-triazol-1-yl]piperidine-2,6-dione], the “cell survival rate (% of control) PBMC” value in data set [1] was 89 % of control. Besides, the viability at 10 µM in the data set on Kasumi-7 cells stood at 81%; in the data set with Daudi cells, 78%. Moreover, the inhibition at 10 µg/mL in the data set on TNF-α production was 59%.

Consider `O=C1CCC(n2cc(-c3cscc3OCc3ccccc3CN3CCOCC3)nn2)C(=O)N1` (stereo not shown) [compound 40, 3-(4-{4-[2-(morpholinomethyl)benzyloxy]thiophen-3-yl}-1H-1,2,3-triazol-1-yl)piperidine-2,6-dione], for which the “cell survival rate (% of control) PBMC” value in data set [1] is listed as 96 % of control. Moreover, the viability at 10 µM with Kasumi-7 cells stood at 41%; in the data set on Daudi cells, 46%. Moreover, the inhibition at 10 µg/mL with TNF-α production amounted to 86%.

(Values after patent US11299485B2, “Thiophene derivative and use thereof” (FUJIMOTO CO., LTD., priority 2018, dated 2022).)
